Assays:
Experiment in all cases: relative viability (nuclei count vs DMSO), 5 days (fraction); higher = more cells survive
NCI-H522 = tested on: NCI-H522
Method in brief: (§1)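 Values are medians from duplicate plates. Each reflects relative viability, defined as the nuclei count of treated wells over that of vehicle wells. Lung cancer cell lines in 1536-well plates were pin-tool dosed one day after seeding with one drug alone or with a fixed anchor-drug dose plus five library-drug doses (not always all listed) in √10 steps, then fixed, stained and imaged at 4× after 5 days.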

NCI-H1355 = tested on: NCI-H1355
Method in brief: as §1

NCI-H520 = tested on: NCI-H520
Method in brief: as §1

A549 = tested on: A549
Method in brief: as §1

LCLC-103H = tested on: LCLC-103H
Method in brief: as §1

NCI-H1623 = tested on: NCI-H1623
Method in brief: as §1

## O=C(O)c1ccc(-c2c[nH]c3ncc(-c4ccccc4)cc23)cc1C1CCCC1 + N=C(N)NC(=N)NCCc1ccccc1 [Phenformin] (partner 250 µM)
NCI-H522; first compound 0.04 µM
  relative viability: 0.686
NCI-H522; first compound 0.1265 µM
  relative viability: 0.724
NCI-H522; first compound 0.4 µM
  relative viability: 0.549
NCI-H522; first compound 1.265 µM
  relative viability: 0.65
NCI-H1355; first compound 0.04 µM
  relative viability: 0.446
NCI-H1355; first compound 0.1265 µM
  relative viability: 0.462
NCI-H1355; first compound 0.4 µM
  relative viability: 0.453
NCI-H1355; first compound 1.265 µM
  relative viability: 0.276
NCI-H520; first compound 0.04 µM
  relative viability: 0.583
NCI-H520; first compound 0.1265 µM
  relative viability: 0.82
NCI-H520; first compound 0.4 µM
  relative viability: 0.585
NCI-H520; first compound 1.265 µM
  relative viability: 0.594
A549; first compound 0.04 µM
  relative viability: 0.168
A549; first compound 0.1265 µM
  relative viability: 0.197
A549; first compound 0.4 µM
  relative viability: 0.187
A549; first compound 1.265 µM
  relative viability: 0.0803
LCLC-103H; first compound 0.04 µM
  relative viability: 0.369
LCLC-103H; first compound 0.1265 µM
  relative viability: 0.34
LCLC-103H; first compound 0.4 µM
  relative viability: 0.389
LCLC-103H; first compound 1.265 µM
  relative viability: 0.371
NCI-H1623; first compound 0.04 µM
  relative viability: 0.618
NCI-H1623; first compound 0.1265 µM
  relative viability: 0.575
NCI-H1623; first compound 0.4 µM
  relative viability: 0.615
NCI-H1623; first compound 1.265 µM
  relative viability: 0.564

## C=C1C(=O)O[C@@H](CCCCCCCC)[C@@H]1C(=O)O [C-75] + N=C(N)NC(=N)NCCc1ccccc1 [Phenformin] (partner 250 µM)
NCI-H522; first compound 0.08 µM
  relative viability: 0.61
NCI-H522; first compound 0.253 µM
  relative viability: 0.382
NCI-H522; first compound 0.8 µM
  relative viability: 0.614
NCI-H522; first compound 8 µM
  relative viability: 0.582
NCI-H1355; first compound 0.08 µM
  relative viability: 0.488
NCI-H1355; first compound 0.253 µM
  relative viability: 0.444
NCI-H1355; first compound 0.8 µM
  relative viability: 0.452
NCI-H1355; first compound 2.53 µM
  relative viability: 0.401
NCI-H1355; first compound 8 µM
  relative viability: 0.484
NCI-H520; first compound 0.08 µM
  relative viability: 0.539
NCI-H520; first compound 0.253 µM
  relative viability: 0.747
NCI-H520; first compound 0.8 µM
  relative viability: 0.464
NCI-H520; first compound 2.53 µM
  relative viability: 0.389
NCI-H520; first compound 8 µM
  relative viability: 0.482
A549; first compound 0.08 µM
  relative viability: 0.185
A549; first compound 0.253 µM
  relative viability: 0.211
A549; first compound 0.8 µM
  relative viability: 0.186
A549; first compound 2.53 µM
  relative viability: 0.119
A549; first compound 8 µM
  relative viability: 0.121
LCLC-103H; first compound 0.08 µM
  relative viability: 0.325
LCLC-103H; first compound 0.253 µM
  relative viability: 0.35
LCLC-103H; first compound 0.8 µM
  relative viability: 0.311
LCLC-103H; first compound 2.53 µM
  relative viability: 0.253
LCLC-103H; first compound 8 µM
  relative viability: 0.389
NCI-H1623; first compound 0.08 µM
  relative viability: 0.613
NCI-H1623; first compound 0.253 µM
  relative viability: 0.652
NCI-H1623; first compound 0.8 µM
  relative viability: 0.584
NCI-H1623; first compound 2.53 µM
  relative viability: 0.542
NCI-H1623; first compound 8 µM
  relative viability: 0.578

## O=C(O)c1ccc(-c2c[nH]c3ncc(-c4ccccc4)cc23)cc1C1CCCC1 + Cc1nc(Nc2ncc(C(=O)Nc3c(C)cccc3Cl)s2)cc(N2CCN(CCO)CC2)n1 [Dasatinib] (partner 0.075 µM)
NCI-H522; first compound 0.04 µM
  relative viability: 0.833
NCI-H522; first compound 0.1265 µM
  relative viability: 0.887
NCI-H522; first compound 0.4 µM
  relative viability: 0.714
NCI-H522; first compound 1.265 µM
  relative viability: 0.851
NCI-H1355; first compound 0.04 µM
  relative viability: 0.754
NCI-H1355; first compound 0.1265 µM
  relative viability: 0.841
NCI-H1355; first compound 0.4 µM
  relative viability: 0.664
NCI-H1355; first compound 1.265 µM
  relative viability: 0.567
NCI-H520; first compound 0.04 µM
  relative viability: 0.199
NCI-H520; first compound 0.1265 µM
  relative viability: 0.203
NCI-H520; first compound 0.4 µM
  relative viability: 0.253
NCI-H520; first compound 1.265 µM
  relative viability: 0.222
LCLC-103H; first compound 0.04 µM
  relative viability: 0.481
LCLC-103H; first compound 0.1265 µM
  relative viability: 0.426
LCLC-103H; first compound 0.4 µM
  relative viability: 0.499
LCLC-103H; first compound 1.265 µM
  relative viability: 0.545
NCI-H1623; first compound 0.04 µM
  relative viability: 0.537
NCI-H1623; first compound 0.1265 µM
  relative viability: 0.502
NCI-H1623; first compound 0.4 µM
  relative viability: 0.535
NCI-H1623; first compound 1.265 µM
  relative viability: 0.545

Source: the supplement of paper PMC10307832
